Patent US20170260169A1, “INHIBITORS FOR STEROID RESPONSE ELEMENTS AND RNA POLYMERASE II AND RELATED METHODS” (priority 2007, published 2017)
Where two headings read alike, the source gives them in different places.

How the values were obtained:
[1] = Liver microsomal stability, human; settings: 1 μM, Human, 1 hr at 37° C., 1 mg/ml microsomes
Description: (§1) Briefly, each polyamide was incubated with 1 mg/ml human or mouse microsomes at 37° C. The reaction was incubated in 100 mM KH2PO4, 2 mM NADPH, 3 mM MgCl2 at pH 7.4. Samples were also incubated in the absence of NADPH to detect NADPH-free degradation. After 60 min the samples were mixed with an equal volume of ice cold methanol stop solution. The mixture was allowed to sit on ice for at least 10 min and mixed with an equal volume of water. The samples were then centrifuged to remove the precipitates and the samples were analyzed by LC/MS/MS. Data represents % remaining by comparing with time zero concentration. The experiments were performed in duplicate.

[2] = Liver microsomal stability, mouse; settings: 1 μM, Mouse, 1 hr at 37° C., 1 mg/ml microsomes
Description: as §1

[3] = Escalating single dose subcutaneous injections, male C57BL/6J mice (weight, histopathology, serum); settings: for weight loss after single SC dose: 1, 3, 10 mg/kg, 9 days
Description: Representative mice (n=2 per dosing group unless otherwise noted) were subjected to histopathology analysis by a veterinary pathologist. Blood from all mice was sampled and sent for analysis of serum markers of target organs. […] These mice were euthanized when significant duress was apparent.
All animal experiments were conducted under an approved protocol at the California Institute of Technology. Animals were allowed to adjust for 3 days after arrival before treatment. […] Animals were monitored daily for weight loss over 9 days and sacrificed. […] Weight was recorded on days of injection and at the experiment endpoint.
Sacrificed animals from weight loss experiments were fixed in 10% formalin and sent for histopathology analysis by IDEXX-RADIL. Histopathologic analysis was performed on the cecum, duodenum, heart, ileum, kidney, liver, lung, pancreas, spleen, and stomach. Tissue analysis was performed as a blind study to the identity of the animals.
Serum from treated animals were collected by retroorbital bleeding. Blood samples were centrifuged at 6,000 rpm for 5 min to collect the serum. Serum ALT, AST, total bilirubin, BUN, and creatinine levels were sent for analysis by IDEXX-RADIL. Serum analysis was performed as a blind study to the identity of the animals.

[4] = Multiple-dose subcutaneous injections, male C57BL/6J mice; assay type: in vivo; settings: 1 mg/kg SC every 3 days
Description: In addition to single dose injections, the effects of repeated dosing of polyamides 77-80 in mice were examined. In this experiment, 8 week-old male C57BL/6J mice (n=3 per dosing group) were treated with 1 mg/kg of polyamides 77-80 by subcutaneous injection every 3 days, for a cycle of three injections and then sacrificed two days after the final injection (FIG. 31A). As in the single dosing experiments, two mice per group were subjected to histopathology analysis and all blood samples were sent for analysis. […] These mice were promptly euthanized.
Serum from treated animals were collected by retroorbital bleeding. […] All samples were sent for analysis at IDEXX-RADIL.

LNCaP cells = assay: Confocal microscopy of fluorescein polyamide uptake in LNCaP cells; assay type: cell-based; settings: for nuclear localization in LNCaP cells: 2 μM, 24 hr
Description: Cells were plated in 35 mm optical dishes (MatTek) and dosed with polyamide 86 at 1 μM for 24 hours with or without 1 μM MG132. Cells were then washed with PBS and imaged on a confocal microscope (Exciter, Zeiss) using a 63× oil immersion lens. Confocal imaging was performed following established protocols (33).
To determine the biological activity of 78 in LNCaP cells we first looked for evidence nuclear localization using fluorescein analog 90. The fluorescein analog of 77, compound 88, was used as benchmark.

[5] = Serum circulation after subcutaneous injection in C57BL/6 mice; assay type: in vivo; settings: 10 mg/kg, male C57BL/6J
Description: To investigate if polyamide 77 could be detected in peripheral blood after SC injections, 120 nmol of 77 (in 5% DMSO/PBS) was injected into the right flank of four C57BL/6 mice. Blood was collected from anesthetized mice via retroorbital collection at 5 minutes, 4 h, and 12 h after injection, then processed by methods previously described and analyzed by HPLC (35). For measurement of serum PSA (KLK3) and uric acid, blood was collected from anesthetized mice via retroorbital collection at experimental endpoint and serum was separated from blood by centrifugation. Serum PSA (KLK3) was measured by ELISA (R&D systems) according to manufacturer's instructions. Uric acid was measured as described (36).
We synthesized four structurally related polyamides (FIG. 28) that have an identical Py-Im sequence ImPyPyPy-γ-ImPyPyPy-NHMe-IPA.

[6] = Liver uptake of fluorescein-polyamide conjugates in mice; assay type: in vivo; settings: 50 nmol (~3 mg/kg), 24 hours
Description: Male C57BL/6J mice (n=2 per group) were injected with 50 nmol (˜3 mg/kg) of 88-91 and then sacrificed 24 hours later. Tissue was excised and processed as previously described (20). The tissues were excised and fixed in 10% Neutral Buffered Formalin for 48 hours. They were subsequently cryoprotected in 15% and 30% aqueous sucrose solution (w/v) for 24 hours each, embedded in a medium for frozen sections (Sakura) and frozen on dry ice. Fluorescence intensity in liver tissue was assessed by laser confocal microscopy in 10 μm thick sections on slides mounted with a ProLong antifade reagent (Invitrogen).

[7] = system: PSA mRNA expression in LNCaP cells; assay: DHT-induced PSA mRNA in LNCaP cells, quantitative real-time RT-PCR; assay type: cell-based; settings: for inhibition of DHT-induced PSA expression: up to, at 10 μM, 1 nM DHT
Description: LNCaP cells (ATCC) were plated in 24-well plates at a density of 40-50×10^3 cells per well (80-100×10^3 cells per ml) in RPMI medium 1640 (ATCC) supplemented with 10% FBS (Irvine Scientific, Santa Ana, Calif.). After 72 h, the medium was replaced with RPMI medium 1640 containing 10% charcoal stripped FBS with or without polyamides at the designated concentrations. Cells were grown for an additional 48 h and then treated with 1 nM DHT for 16 h. When appropriate, bicalutamide was added 2 h before DHT stimulation. Isolation of RNA and cDNA synthesis was performed as described (21). Quantitative real-time RT-PCR was performed with SYBR Green PCR Master Mix (Applied Biosystems, Foster City, Calif.) on an ABI 7300 instrument. PSA mRNA was measured relative to β-glucuronidase as an endogenous control.

[8] = system: transcripts in DHT-stimulated LNCaP cells; assay: Gene expression with Affymetrix Human Genome U133 Plus 2.0 arrays, DHT-stimulated LNCaP cells; assay type: cell-based
Description: LNCaP cells were plated in 12-well plates at a density of 80-100×10^3 cells per well. Media, polyamide treatments, and time courses were the same as described above. Bicalutamide was added 2 h before DHT stimulation. RNA was isolated as described in ref. 21. From this point, experiments were carried out at the Millard and Muriel Jacobs Gene Expression Facility at the California Institute of Technology. Labeled mRNA was hybridized to Affymetrix high-density Human Genome U133 Plus 2.0 arrays according to established protocols. Gene expression was analyzed by using Resolver (Rosetta Biosoftware, Seattle, Wash.). Data were uploaded to the Gene Expression Omnibus repository (accession no. GSE7708).
Global effects of polyamides 1 and 2 and bicalutamide on gene expression in DHT-stimulated LNCaP cells were monitored with Affymetrix (Santa Clara, Calif.) high-density Human Genome U133 Plus 2.0 arrays, which interrogate >50,000 transcripts.

[9] = system: FKBP5 mRNA expression in LNCaP cells; assay: DHT-induced FKBP5 mRNA in LNCaP cells; assay type: cell-based
[10] = system: PSA mRNA expression in LNAR cells; assay: PSA mRNA expression in LNAR cells (hormone refractory, over-express AR); assay type: cell-based
Description: The cell line LNAR was used, which has been engineered to over-express AR (14). LNAR cells over-express AR and form hormone refractory tumors when xenografted in mice (14).

[11] = 10 μM, + DHT, relative to DHT-induced controls, p ≦ 0.01
[12] = relative to DHT-induced controls, + DHT

In the case of `CN(CCCNC(=O)c1cccc(C(=O)O)c1)CCCNC(=O)c1cc(NC(=O)c2cc(NC(=O)c3cc(NC(=O)c4nc(NC(=O)C[C@@H](N)CNC(=O)c5cc(NC(=O)c6cc(NC(=O)c7cc(NC(=O)c8nccn8C)cn7C)cn6C)cn5C)cn4C)cn3C)cn2C)cn1C` [Polyamide 79, ImPyPyPy-3-(R)H^2Nγ-ImPyPyPy-NHMe-IPA], the “Mean remaining parent NADPH-free” value [1] is reported as 100%, the “Mean remaining parent with NADPH” value [1] is reported as 91.9% and the “Mean remaining parent NADPH-free” value [2] is reported as 100%. For the same compound, the “Mean remaining parent with NADPH” value [2] was 92.4%, the “weight loss after single SC dose” value [3] was “significant weight loss only at 10 mg/kg” and the kidney histopathology ([3]; single SC 3 mg/kg) was “Moderate atypical tubular regeneration”. The liver histopathology ([3]; single SC 3 mg/kg) was “Mild hepatocellular necrosis and apoptosis”, the liver histopathology ([3]; single SC 10 mg/kg) was “diffuse hepatocellular necrosis and apoptosis” and the spleen histopathology ([3]; single SC 10 mg/kg) was “Mild lymphoid apoptosis in the white pulp of the spleen”. The “serum kidney markers creatinine and BUN” value ([3]; single SC dose) was “elevated BUN at 10 mg/kg”, the “serum liver markers AST, ALT, total bilirubin” value ([3]; single SC dose) was “severe elevation of AST, ALT, and total bilirubin at 10 mg/kg and to a lesser extent at 3 mg/kg” and the “liver and kidney histopathology” value [4] was “mild multifocal hepatocellular necrosis and apoptosis in the liver and mild variable tubular attenuation, karyomegaly and epithelial necrosis and apoptosis in the kidney”. For the same compound, the “liver and kidney serum markers” value [4] was “elevated AST and ALT” and the “weight and physical morbidity” value ([4]; three injections) was “no loss in weight or physical morbidities”.
In the case of `CN(CCCNC(=O)c1cc(NC(=O)c2cc(NC(=O)c3cc(NC(=O)c4nc(NC(=O)C[C@H](CNC(=O)c5cc(NC(=O)c6cc(NC(=O)c7cc(NC(=O)c8nccn8C)cn7C)cn6C)cn5C)NC(=O)OCc5ccccc5)cn4C)cn3C)cn2C)cn1C)CCCNC(=S)Nc1ccc(-c2c3ccc(=O)cc-3oc3cc(O)ccc23)c(C(=O)O)c1` [Polyamide 86], the “cellular uptake with MG132” value (LNCaP cells; 1 μM, 24 hours, 1 μM MG132) is reported as “did not affect the cellular uptake”.
For `Cn1cc2cc1C(=O)NCCCC(=O)Nc1cn(C)c(n1)C(=O)Nc1cc(n(C)c1)C(=O)Nc1cc(n(C)c1)C(=O)Nc1cc(n(C)c1)C(=O)NCC[C@@H](N)C(=O)Nc1cn(C)c(n1)C(=O)Nc1cc(n(C)c1)C(=O)Nc1cc(n(C)c1)C(=O)N2` [Polyamide 87], the “bioavailability in serum after subcutaneous injection” value [5] was “bioavailable after subcutaneous injection at 10 mg/kg”, the “weight loss after single SC dose” value [3] was “did not cause significant weight loss” and the “overall toxicity / organ damage” value ([3]; single SC 1, 3, 10 mg/kg) was “moderate damage to both the liver and kidney at 3 and 10 mg/kg”. For the same compound, the “serum liver markers AST, ALT, total bilirubin” value ([3]; single SC dose) was “caused levels of ALT and AST to increase in a dose dependent manner”.
For `CN(CCCNC(=O)c1cc(NC(=O)c2cc(NC(=O)c3cc(NC(=O)c4nc(NC(=O)[C@H](N)CCNC(=O)c5cc(NC(=O)c6cc(NC(=O)c7cc(NC(=O)c8nccn8C)cn7C)cn6C)cn5C)cn4C)cn3C)cn2C)cn1C)CCCNC(=S)Nc1ccc(-c2c3ccc(=O)cc-3oc3cc(O)ccc23)c(C(=O)O)c1` [Polyamide 88], the “nuclear localization in LNCaP cells” value (LNCaP cells) was “robust nuclear localization”.
In the case of `CC(=O)N[C@H](CCNC(=O)c1cc(NC(=O)c2cc(NC(=O)c3cc(NC(=O)c4nccn4C)cn3C)cn2C)cn1C)C(=O)Nc1cn(C)c(C(=O)Nc2cc(C(=O)Nc3cc(C(=O)Nc4cc(C(=O)NCCCN(C)CCCNC(=S)Nc5ccc(-c6c7ccc(=O)cc-7oc7cc(O)ccc67)c(C(=O)O)c5)n(C)c4)n(C)c3)n(C)c2)n1` [Polyamide 90], the “nuclear fluorescence in liver sections” value [6] is reported as “less nuclear fluorescence in liver sections than the other FITC-polyamide conjugates” and the “nuclear localization in LNCaP cells” value (LNCaP cells) is reported as “robust nuclear localization”.
For `CC(=O)N[C@@H](CNC(=O)c1cc(NC(=O)c2cc(NC(=O)c3cc(NC(=O)c4nccn4C)cn3C)cn2C)cn1C)CC(=O)Nc1cn(C)c(C(=O)Nc2cc(C(=O)Nc3cc(C(=O)Nc4cc(C(=O)NCCCN(C)CCCNC(=S)Nc5ccc(-c6c7ccc(=O)cc-7oc7cc(O)ccc67)c(C(=O)O)c5)n(C)c4)n(C)c3)n(C)c2)n1` [Polyamide 91], the “nuclear fluorescence in liver sections” value [6] was “the most intense nuclear fluorescence in liver sections”.
In the case of `CC(O)(CS(=O)(=O)c1ccc(F)cc1)C(=O)Nc1ccc(C#N)c(C(F)(F)F)c1` (stereo not shown) [bicalutamide, reference compound], the IC50 ([7]; Homo sapiens, LNCaP + DHT, read-out: IC50 for inhibition of PSA mRNA expression) is reported as 0.9 µM, the “inhibition of DHT-induced PSA expression” value [7] is reported as “approximately 70%” and the “inhibition of DHT-induced PSA expression” value ([7]; listed as Bicalutamide) is reported as “≈ 70%”. The “Number of transcripts down-regulated (fold change ≦ −2.0)” value [8, 11] was 602, the “Number of transcripts down-regulated (fold change ≦ −4.0)” value [8, 11] was 133 and the “Number of transcripts up-regulated (fold change ≧ 2.0)” value [8, 11] was 611. The “Number of transcripts up-regulated (fold change ≧ 4.0)” value [8, 11] was 96, the “number of transcripts affected by at least 2-fold” value ([8]; 10 μM, P≦0.01, vs DHT-induced controls) was 1,213 and the “number of the 88 DHT-repressed transcripts derepressed at least 2-fold” value ([8]; P≦0.01) was 87. For the same compound, the “number of the 199 DHT-induced transcripts inhibited at least 2-fold” value ([8]; P≦0.01) was 186, the “Fold-change of FKBP5” value [8, 12] was −36.4 and the “Fold-change of KLK2” value [8, 12] was −14.7. For the same compound, the “Fold-change of KLK3 (PSA)” value [8, 12] was −3.2, the “Fold-change of TMPRSS2” value [8, 12] was −4.1 and the “inhibition of DHT-induced expression of FKBP5” value [9] was roughly 95%. The IC50 ([10]; LNAR + DHT, read-out: IC50 for inhibition of PSA mRNA expression) was greater than 1000 µM and the IC50 ([10]; LNAR − DHT, bicalutamide induces PSA mRNA in LNAR cells, read-out: IC50 for inhibition of PSA mRNA expression (value in parentheses)) was 3.5 µM.
